Consider 26 molecules from PubChem BioAssay (NCI).

Holding throughout (assay): NCI anticancer screen, dose series, 48 h
Assay [1] deals with HCT-116 colon.
Assay [2] deals with MCF7 breast.
Assay [3] deals with CCRF-CEM leukemia.
Assay [4] relates to RPMI-8226 leukemia.
Assay [5] concerns UACC-257 melanoma.
Assay [6] relates to NCI-H522 lung.
Assay [7] relates to OVCAR-5 ovarian.
For assay [8], the system named is SW-620 colon.
The test system of assay [9] is HL-60(TB) leukemia.
In assay [10] the test system is RXF 393 renal.

Where “and” joins values, the source holds several entries; their conditions need not be identical. Identical values can stand only once.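 Where inhibition never reached the appropriate level, the endpoint shown equals the highest concentration tested. Otherwise, values were interpolated linearly from a five-concentration, 48-hour dose response in 96-well plates. Abbreviation: GI50, concentration required for 50% inhibition of growth. TGI marks complete inhibition of growth.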 A value given as a limit tells only on which side of the number the result lay.

For the molecule `N#Cc1nn(-c2cc(=O)[nH]c3ccc(Cl)cc23)c(N)c1C#N`, the GI50 is > 100 µM in assay [1]; 82.3 µM in assay [2]; > 100 µM in assay [3]; > 100 µM in assay [4]; > 100 µM in [5]; > 100 µM in assay [6]. Moreover, the GI50 in assay [7], in [8] and in assay [9] was > 100 µM in each case. The TGI in [1], in assay [2], in assay [3], in assay [4], in assay [5] and in assay [6] was > 100 µM in each case. Further, the TGI in assay [7], in assay [8] and in assay [9] was > 100 µM each time.
For `Cc1cc2c(=O)c3ccccc3[nH]c2c(C(N)=O)c1C`, the TGI in [1], in assay [3], in assay [4], in assay [5], in assay [6] and in assay [7] was > 100 µM each time. For the same molecule, the TGI in assay [8] and in [10] was > 100 µM in each case.
Turning to `COc1c(O)c2c(=O)cc3c4c5c(cc(=O)c6c(O)c(OC)c(CC(C)O)c(c(c1CC(C)O)c24)c65)OCO3` (configuration not stated), the TGI in [1] was determined as 3.48 µM; in assay [3] it was 16.7 µM; in assay [4], 12 µM; in [5] it was 2.78 µM; in assay [6] it was 4.38 µM; in assay [7] it was 9.13 µM. The TGI in assay [8] was 8.65 µM; in [10] it was 4.03 µM; in assay [9] it was 5.1 µM.
With `COc1ccc(OCC(=O)O)c2c1CCCC2=O`, the TGI in assay [1], in assay [3], in [4], in [5], in assay [6] and in assay [7] was > 100 µM in each case. The TGI in assay [8], in [10] and in [9] was > 100 µM each time.
Turning to `CN(C)CC[C@H](CSc1ccccc1)Nc1ccc(S(=O)(=O)NC(=O)c2ccc(N3CCN(Cc4ccccc4-c4ccc(Cl)cc4)CC3)cc2)cc1[N+](=O)[O-]`, the GI50 in assay [1] was 2.93 µM; in [2], 3 µM; in [3], 0.36 µM; in assay [4], 2.56 µM; in assay [5] it was 1.79 µM; in [7], 5.07 µM. Besides, the GI50 in assay [8] was 4.02 µM; in assay [10] it was 0.918 µM; in [9], 0.35 µM. Besides, the TGI in assay [1] was > 27.3 µM; in [2], > 41.3 µM; in [3] it was > 100 µM; in [4], > 100 µM; in assay [5], 6.16 µM; in assay [7], 41.1 µM. The TGI in [8] is > 61.1 µM; in assay [10], 4.27 µM; in assay [9] it was 4.56 µM.
With `CCOC(=O)N[C@H]1CCc2cc(OC)c(OC)c(OC)c2-c2ccc(SC)c(=O)cc21`, the TGI was 6.09 µM and > 39 µM in assay [1]; > 100 µM in assay [2]; > 100 µM in [3]; > 100 µM in [4]; > 100 µM in [5]; > 100 µM in assay [7]. The TGI in assay [8] is > 100 µM; in [10] it was > 100 µM; in [9], < 0.01 µM. For the same molecule, the GI50 is > 70.5 µM in assay [5] and < 0.01 µM in assay [7].
`NNC(=O)CNc1cccc(Br)c1`: the TGI in [1], in assay [2], in [4], in assay [5], in assay [6] and in assay [7] was > 100 µM each time. In addition, the TGI in assay [8], in [10] and in [9] was > 100 µM each time.
On to `CC(C)C1=Cc2ccc3c(c2C(=O)C1=O)CCCC3(C)C`, for which the TGI in assay [1] was 3.33 µM; in assay [3], > 100 µM; in [4] it was 5.17 µM; in assay [5] it was 8.64 µM; in assay [6] it was 3.39 µM; in [7], 33.8 µM. In addition, the TGI in assay [8] was 10.2 µM; in [10], 3.86 µM; in assay [9] it was > 100 µM.
`COc1ccc(-c2nnc3n(C)c(=O)c4ccccc4n23)cc1N`: the GI50 in assay [1] is 0.0571 µM; in [2] it was 0.043 µM; in assay [3] it was 2.75 µM; in assay [4] it was 3.88 µM; in assay [6] it was 0.0306 µM; in assay [7], 9.26 µM. For the same molecule, the GI50 is 0.0523 µM in assay [8] and 2.59 µM in assay [10]. The TGI in assay [1] is > 100 µM; in assay [2] it was > 100 µM; in [3] it was > 100 µM; in [4], > 100 µM; in [6], 42.6 µM; in assay [7], > 100 µM. For the same molecule, the TGI in [8] and in assay [10] was > 100 µM throughout.
Take `COC(=O)/C(=N\NC(N)=S)C(C(=O)OC)C(=O)C(=O)Nc1ccc(C)cc1` (configuration not stated): the TGI in assay [1], in assay [3], in assay [4], in assay [5], in assay [6] and in assay [7] was > 100 µM each time. Moreover, the TGI in assay [8], in assay [10] and in assay [9] was > 100 µM each time.
For the molecule `O=C(Nc1cccc(C(F)(F)F)c1)c1ccc(NC2=C(Cl)C(=O)N(Cc3ccc(Cl)cc3Cl)C2=O)cc1`, the GI50 was 5.99 µM in assay [1]; 2.15 µM in assay [2]; 2.27 µM in [3]; 2.29 µM in [4]; 15.9 µM in [5]; 3.34 µM in [6]. Besides, the GI50 in [8] was 2.12 µM; in [10], 4.76 µM; in assay [9] it was 2.72 µM. Moreover, the TGI in assay [1] was determined as 18.6 µM; in [2], 4.71 µM; in assay [3], 5.46 µM; in [4] it was 5.08 µM; in assay [5], 42.2 µM; in assay [6], 10.2 µM. The TGI amounted to 6.05 µM in assay [8], 28.3 µM in [10] and 12.4 µM in assay [9].
In the case of `Cc1nc(Nc2cccnc2)sc1C(=O)/C=C/c1ccc(F)cc1`, the GI50 in [1] was 1.64 µM; in assay [2] it was 2.29 µM; in assay [3] it was 1.4 µM; in assay [4], 2.69 µM; in [5] it was 5.87 µM; in assay [6], 2.17 µM. The GI50 in [7] was 2.78 µM; in assay [8], 2.46 µM; in [10] it was 3.01 µM. Besides, the TGI was 4.18 µM in assay [1]; > 100 µM in [2]; 24.7 µM in assay [3]; 15.2 µM in assay [4]; 28.6 µM in assay [5]; 5.11 µM in [6]. For the same molecule, the TGI in assay [7] was 23 µM; in assay [8] it was 6.46 µM; in [10], 8.31 µM.
On to `COC(=O)C(=Cc1cc(OC)c(OC)c(OC)c1-c1cc2c(cc1C1(C)OCCS1)OCO2)C(=O)OC` (configuration not stated), for which the TGI in assay [1] is > 100 µM; in assay [3] it was > 100 µM; in [4], > 100 µM; in assay [5] it was > 100 µM; in assay [6] it was 55.5 µM; in assay [7] it was > 100 µM. Further, the TGI in [8], in assay [10] and in [9] was > 100 µM each time.
Take `O=C(CC1C(=O)Nc2ccccc2S1=O)Nc1cc(Cl)ccc1Cl` (configuration not stated): the TGI in [1], in assay [3], in assay [4], in assay [5], in assay [6] and in [7] was > 100 µM throughout. The TGI in assay [8], in [10] and in [9] was > 100 µM in each case.
On to `CN1C(=O)c2ccccc2NC(=O)C12O[C@@H]2c1ccccc1` (some centres not stated), for which the TGI in [1], in assay [2], in assay [3], in assay [4], in [5] and in assay [6] was > 100 µM throughout. In addition, the TGI in [7], in [8] and in [9] was > 100 µM each time.
Turning to `COC(=O)C1CCCC2(C1)OCCO2` (configuration not stated), the TGI in [1], in assay [3], in assay [4], in assay [5], in assay [6] and in [7] was > 100 µM in each case. The TGI in assay [8] and in assay [10] was > 100 µM in each case.
As to `CN1CCC(=O)/C(=C/c2ccccc2)C1`, the TGI in assay [1] was found to be 3.25 µM; in assay [3], 50.7 µM; in assay [4], 15.7 µM; in assay [5] it was 28.2 µM; in assay [6], 33.6 µM; in assay [7], 29.3 µM. Also, the TGI in assay [8] stood at 14.1 µM; in assay [10] it was 26.8 µM; in assay [9] it was 41.5 µM.
Take `O=[N+]([O-])c1ccc2occ3c2c1CCC3`: the TGI in [1], in assay [3], in assay [4], in [5], in assay [6] and in [7] was > 100 µM throughout. In addition, the TGI in [8], in assay [10] and in [9] was > 100 µM each time.
With `CCOC(=O)c1nc2c(OC)nn(O)cc-2c1[N+](=O)[O-]`, the TGI in assay [1] turned out to be 38 µM; in assay [3] it was 50.9 µM; in assay [4] it was 56.2 µM; in assay [5], 33.5 µM; in assay [6], 36.9 µM; in [7], 33.7 µM. In addition, the TGI in assay [8] turned out to be 29.1 µM; in [10], 29.3 µM; in assay [9], 46.4 µM.
On to `Cc1ccccc1C(=O)c1cc(O)ccc1O`, for which the TGI in assay [1] was > 100 µM; in assay [3], > 100 µM; in assay [4] it was > 100 µM; in assay [5] it was > 100 µM; in assay [6], 99.1 µM; in assay [7] it was > 100 µM. Also, the TGI in assay [8], in assay [10] and in assay [9] was > 100 µM throughout.
With `C#CC1/C(=C\C(=O)OC)CCCC1O` (configuration not stated), the TGI in assay [1], in [3], in [4], in [5], in [6] and in assay [7] was > 100 µM throughout. Also, the TGI in assay [8], in assay [10] and in assay [9] was > 100 µM each time.
`CN(C)C(=S)/N=c1\sn(C)/c(=N\C(=S)N(C)C)n1C`: the TGI in [1], in assay [4], in assay [5], in assay [6], in assay [7] and in [8] was > 100 µM throughout. Moreover, the TGI in [10] and in assay [9] was > 100 µM each time.
With `CCC(C)(C)c1ccc(OCCCCNC(=O)c2ccc3ccccc3c2O)c(C(C)(C)CC)c1`, the TGI in [1] is > 100 µM; in assay [2], > 100 µM; in assay [3] it was > 100 µM; in assay [5], > 100 µM; in [6], 91.2 µM; in assay [7], > 100 µM. Also, the TGI in assay [8] is 87 µM; in assay [9], > 100 µM.
On to `COc1cc(OC)c2c(=O)cc(-c3ccc(OC)c(OC)c3OC)oc2c1`, for which the TGI in assay [1], in assay [4], in [5], in assay [6], in [7] and in [8] was > 100 µM throughout. Also, the TGI in assay [10] and in assay [9] was > 100 µM each time.
Take `C/C(CC(=O)Nc1ccc(C)c(C)c1)=N\N(c1ccccc1)c1ccccc1`: the TGI in assay [1] was > 100 µM; in assay [3], 64.4 µM; in assay [4], > 100 µM; in assay [5], > 100 µM; in [6], 29.7 µM; in assay [7], > 100 µM. For the same molecule, the TGI in assay [10] and in assay [9] was > 100 µM in each case.
As for `c1ccc2c(OCCSCCCCCCCCCCSCCOc3cccc4ccccc34)cccc2c1`, the TGI in [3], in [4], in assay [5], in assay [6], in assay [7] and in [8] was > 100 µM in each case. For the same molecule, the TGI in assay [10] and in assay [9] was > 100 µM throughout.
